{"source": "paper PMC11765512", "about": "(International Journal of Molecular Sciences, 2025)", "key": {"[1]": {"system": "S-RBD-ACE2 interaction, AH109 (pAD-S-RBD+pBD-ACE2)", "format": "cell-based, SARS-CoV-2 S-RBD, human ACE2 (in yeast)"}, "[2]": {"target": "S-RBD-ACE2 interaction, AH109 (pAD-S-RBD+pBD-ACE2) (UniProt P0DTC2+Q9BYF1)", "format": "cell-based, SARS-CoV-2 S-RBD, human ACE2 (in yeast)"}}, "data": [{"compound": "O=C(c1ccc(N2CCCCS2(=O)=O)cc1)N1CCN(C(=O)c2ccco2)CC1", "note": "[IMB-1C]", "values": [{"measurement": "Difference of MICs among AH109 (pAD-S-RBD+pBD-ACE2) and AH109 (pAD-T+pBD-53)", "setting": "[1]", "value": 2, "unit": "fold"}]}, {"compound": "Cc1ccc(N(Sc2ccc(Cl)cc2)C2C=CS(=O)(=O)C2)cc1", "note": "(stereo not drawn) [IMB-4A]", "values": [{"measurement": "Difference of MICs among AH109 (pAD-S-RBD+pBD-ACE2) and AH109 (pAD-T+pBD-53)", "setting": "[1]", "value": 2, "unit": "fold"}]}, {"compound": "CC(C)CCC[C@@H](C)[C@H]1CC[C@H]2[C@@H]3CC[C@H]4C[C@@H](O[C@@H]5O[C@H](COS(=O)(=O)O)[C@@H](O[C@H]6O[C@H](COS(=O)(=O)O)[C@@H](O[C@H]7O[C@H](COS(=O)(=O)O)[C@@H](O[C@H]8O[C@H](COS(=O)(=O)O)[C@@H](OS(=O)(=O)O)[C@H](OS(=O)(=O)O)[C@H]8OS(=O)(=O)O)[C@H](OS(=O)(=O)O)[C@H]7OS(=O)(=O)O)[C@H](OS(=O)(=O)O)[C@H]6OS(=O)(=O)O)[C@H](OS(=O)(=O)O)[C@H]5OS(=O)(=O)O)CC[C@]4(C)[C@H]3CC[C@]12C", "note": "[Pixatimod, reference compound]", "values": [{"measurement": "MIC against AH109 (pAD-S-RBD+pBD-ACE2)", "setting": "[2]", "value": 1.56, "unit": "μg/mL"}]}]}
